# pKi: −log10 of the molar value. *1 amine or outer side, *2 acyl side, *3 side chain or, on linkers, in order; H or OH if unused. Where a SMILES comes first, the peptide text is derived from it. Bridges are numbered along the chain shown (N, C = ends). The star is where a group is joined. X1 = NC(=O)CN1CCN(CC(=O)O)CCN(CC(=O)*)CCN(CC(=O)O)CC1; NOTA = O=C(O)CN1CCN(CC(=O)O)CCN(CC(=O)*)CC1; mXylylene = c1cc(C[*:1])cc(C[*:2])c1; oXylylene = c1ccc(C[*:2])c(C[*:1])c1; pXylylene = c1cc(C[*:2])ccc1C[*:1]; 12Ado = NCCCCCCCCCCCC(=O)O; PEG2 = NCCOCCOCCC(=O)O; Ahx = NCCCCCC(=O)O
# Molecular target: T1, Human Fibroblast Activation Protein (FAP) (Homo sapiens, UniProt Q12884)
# T1 sequence (Q12884 1-760): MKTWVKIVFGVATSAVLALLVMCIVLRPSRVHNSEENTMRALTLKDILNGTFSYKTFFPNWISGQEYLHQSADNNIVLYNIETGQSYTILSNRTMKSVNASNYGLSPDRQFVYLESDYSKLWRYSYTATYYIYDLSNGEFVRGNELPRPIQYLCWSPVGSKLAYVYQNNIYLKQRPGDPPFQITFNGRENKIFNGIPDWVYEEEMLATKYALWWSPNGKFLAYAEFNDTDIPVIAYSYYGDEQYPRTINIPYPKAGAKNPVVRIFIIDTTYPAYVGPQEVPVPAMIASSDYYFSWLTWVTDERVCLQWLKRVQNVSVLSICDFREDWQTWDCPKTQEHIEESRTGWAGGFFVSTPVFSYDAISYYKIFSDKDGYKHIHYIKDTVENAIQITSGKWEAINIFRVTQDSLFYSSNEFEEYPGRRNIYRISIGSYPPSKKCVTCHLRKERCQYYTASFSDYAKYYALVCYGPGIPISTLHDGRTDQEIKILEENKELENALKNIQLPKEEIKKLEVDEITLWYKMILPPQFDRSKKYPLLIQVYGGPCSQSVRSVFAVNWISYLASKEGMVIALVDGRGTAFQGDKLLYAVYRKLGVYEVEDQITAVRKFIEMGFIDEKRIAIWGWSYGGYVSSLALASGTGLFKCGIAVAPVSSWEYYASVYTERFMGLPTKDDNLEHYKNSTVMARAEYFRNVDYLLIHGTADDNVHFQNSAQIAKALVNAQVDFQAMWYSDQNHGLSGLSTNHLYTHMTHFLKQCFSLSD
# Assay: Enzyme inhibition assay against human FAP (substrate Z-GP-AMC), Example 1
# Assay type: biochemical
# Details: human FAP 5 ng/well, 50 μM Z-GP-AMC; Ki from IC50 by Cheng-Prusoff
# Method in brief: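 FAP (5 ng/well) preincubated 10 min at RT with peptide (10^−6 to 10^−12), then 50 μM Z-GP-AMC added for 1 h at RT, protected from light. Buffer 50 mM Tris-HCl, 1 M NaCl, 1 mg/mL BSA, pH 7.5; fluorescence at ex/em 360/460. IC50 from non-linear regression, converted to Ki via Cheng-Prusoff using known substrate Km.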
row,Compound,pKi
1,"C[C@@H](O)[C@@H]1NC(=O)[C@@H](NC(=O)CCCCCNC(=O)CN2CCN(CC(=O)O)CCN(CC(N)=O)CCN(CC(=O)O)CC2)CSCc2ccccc2CSC[C@@H](C(N)=O)NC(=O)[C@H](Cc2c[nH]c3ccccc23)NC(=O)[C@H](Cc2c[nH]c3ccccc23)NC(=O)[C@H](CCC(N)=O)NC(=O)[C@H](CCC(=O)O)NC(=O)[C@H](Cc2c[nH]c3ccccc23)NC(=O)[C@@H]2CCCN2C1=O [VMT-FAP-2-70, PSC-6AHA-[C(oXdB)TPWEQWWC]-NH2] ({X1-Ahx}-CTPWEQWWC-NH2; linker 1-9 via oXylylene)",9.19
2,"C[C@@H](O)[C@@H]1NC(=O)[C@@H](NC(=O)CCCCCCCCCCCNC(=O)CN2CCN(CC(=O)O)CCN(CC(N)=O)CCN(CC(=O)O)CC2)CSCc2ccccc2CSC[C@@H](C(N)=O)NC(=O)[C@H](Cc2c[nH]c3ccccc23)NC(=O)[C@H](Cc2c[nH]c3ccccc23)NC(=O)[C@H](CCC(N)=O)NC(=O)[C@H](CCC(=O)O)NC(=O)[C@H](Cc2c[nH]c3ccccc23)NC(=O)[C@@H]2CCCN2C1=O [VMT-FAP-2-74, PSC-12-Ado-[C(oXdB)TPWEQWWC]-NH2] ({X1-12Ado}-CTPWEQWWC-NH2; linker 1-9 via oXylylene)",8.18
3,"C[C@@H](O)[C@@H]1NC(=O)[C@@H](NC(=O)CCCCCNC(=O)CN2CCN(CC(=O)O)CCN(CC(N)=O)CCN(CC(=O)O)CC2)CSCc2ccccc2CSC[C@@H](C(=O)O)NC(=O)[C@H](Cc2c[nH]c3ccccc23)NC(=O)[C@H](Cc2c[nH]c3ccccc23)NC(=O)[C@H](CCC(N)=O)NC(=O)[C@H](CCC(=O)O)NC(=O)[C@H](Cc2c[nH]c3ccccc23)NC(=O)[C@@H]2CCCN2C1=O [VMT-FAP-2-75, PSC-6AHA-[C(oXdB)TPWEQWWC]-COOH] ({X1-Ahx}-CTPWEQWWC-OH; linker 1-9 via oXylylene)",8.90
4,"C[C@@H](O)[C@@H]1NC(=O)[C@@H](NC(=O)CCOCCOCCNC(=O)CN2CCN(CC(=O)O)CCN(CC(N)=O)CCN(CC(=O)O)CC2)CSCc2ccccc2CSC[C@@H](C(=O)O)NC(=O)[C@H](Cc2c[nH]c3ccccc23)NC(=O)[C@H](Cc2c[nH]c3ccccc23)NC(=O)[C@H](CCC(N)=O)NC(=O)[C@H](CCC(=O)O)NC(=O)[C@H](Cc2c[nH]c3ccccc23)NC(=O)[C@@H]2CCCN2C1=O [VMT-FAP-2-76, PSC-PEG2-[C(oXdB)TPWEQWWC]-COOH] ({X1-PEG2}-CTPWEQWWC-OH; linker 1-9 via oXylylene)",7.50
5,"C[C@@H](O)[C@@H]1NC(=O)[C@@H](NC(=O)CCOCCOCCNC(=O)CN2CCN(CC(=O)O)CCN(CC(=O)O)CC2)CSCc2ccccc2CSC[C@@H](C(N)=O)NC(=O)[C@H](Cc2c[nH]c3ccccc23)NC(=O)[C@H](Cc2c[nH]c3ccccc23)NC(=O)[C@H](CCC(N)=O)NC(=O)[C@H](CCC(=O)O)NC(=O)[C@H](Cc2c[nH]c3ccccc23)NC(=O)[C@@H]2CCCN2C1=O [VMT-FAP-2-78, NOTA-PEG2-[C(oXdB)TPWEQWWC]-NH2] ({NOTA-PEG2}-CTPWEQWWC-NH2; linker 1-9 via oXylylene)",11.00
6,"C[C@@H](O)[C@@H]1NC(=O)[C@@H](NC(=O)CCOCCOCCNC(=O)CN2CCN(CC(=O)O)CCN(CC(N)=O)CCN(CC(=O)O)CC2)CSCc2ccc(cc2)CSC[C@@H](C(N)=O)NC(=O)[C@H](Cc2c[nH]c3ccccc23)NC(=O)[C@H](Cc2c[nH]c3ccccc23)NC(=O)[C@H](CCC(N)=O)NC(=O)[C@H](CCC(=O)O)NC(=O)[C@H](Cc2c[nH]c3ccccc23)NC(=O)[C@@H]2CCCN2C1=O [VMT-FAP-2-82, PSC-PEG2-[C(pXdB)TPWEQWWC]-NH2] ({X1-PEG2}-CTPWEQWWC-NH2; linker 1-9 via pXylylene)",8.57
7,"C[C@@H](O)[C@@H]1NC(=O)[C@@H](NC(=O)CCOCCOCCNC(=O)CN2CCN(CC(=O)O)CCN(CC(N)=O)CCN(CC(=O)O)CC2)CSCc2cccc(c2)CSC[C@@H](C(N)=O)NC(=O)[C@H](Cc2c[nH]c3ccccc23)NC(=O)[C@H](Cc2c[nH]c3ccccc23)NC(=O)[C@H](CCC(N)=O)NC(=O)[C@H](CCC(=O)O)NC(=O)[C@H](Cc2c[nH]c3ccccc23)NC(=O)[C@@H]2CCCN2C1=O [VMT-FAP-2-83, PSC-PEG2-[C(mXdB)TPWEQWWC]-NH2] ({X1-PEG2}-CTPWEQWWC-NH2; linker 1-9 via mXylylene)",9.27
8,"C[C@@H](O)[C@@H]1NC(=O)[C@@H]2CCCN2C(=O)[C@H](Cc2c[nH]c3ccccc23)NC(=O)[C@H](CCC(=O)O)NC(=O)[C@H](CCC(N)=O)NC(=O)[C@H](Cc2c[nH]c3ccccc23)NC(=O)[C@H](Cc2c[nH]c3ccccc23)NC(=O)[C@@H](NC(=O)CCOCCOCCNC(=O)CN2CCN(CC(=O)O)CCN(CC(N)=O)CCN(CC(=O)O)CC2)CSCc2ccccc2CSC[C@@H](C(=O)N[C@@H](CO)C(N)=O)NC1=O [VMT-FAP-2-84, PSC-PEG2-[C(oXdB)WWQEWPTC]S-NH2] ({X1-PEG2}-CWWQEWPTCS-NH2; linker 1-9 via oXylylene)",6.94
9,NODA-PEG2-[C(oXdB)TPWEQWWC]-NH2 [VMT-FAP-2-77],8.34
10,PSC-Bn-NCS-PEG1-[C(oXdB)TPWEQWWC]-NH2 [VMT-FAP-2-72],9.10
11,PSC-Bn-NCS-PEG2-[C(oXdB)TPWEQWWC]-NH2 [VMT-FAP-2-73],8.44

# System: hFAP-HT1080 tumors
# Assay: Radiotherapeutic efficacy in human fibrosarcoma xenograft model
# Assay type: in vivo, athymic nude mice
# Details: 4.5-5.4 MBq over three fractionated doses, weight recorded over 70 days
# Method: In vivo efficacy was determined in a sarcoma model where hFAP is expressed on the membrane of cancer cell surface. HT1080 cells engineered to express hFAP. 8 days prior to treatment, athymic nude mice were inoculated with approximately 2 million cells. The mice were then randomized by tumor size and divided into two groups for control and treatment. The treated group was treated with 4.5-5.4 MBq [^212Pb]-Pb-VMT-FAP-2-59 over three fractionated doses approximately 2 weeks apart. Two mice were treated a fourth time, at day 48 and day 53 with an additional 1.9-2.1MBq. Tumor volume was measured via caliper, and weight recorded over 70 days. […] Efficacy of VMT-FAP-2-59 in athymic nude mice bearing HT1080-FAP tumors. Tumor volume and weight was monitored over 70 days. The treatment group was given 4.5-5.4MBq ^212Pb-VMT-FAP-2-59 over 3 fractionated doses. Two mice with tumor recurrence were given an additional 1.9-2.1 MBq, as indicated by dashed arrows.
row,Compound,Treatment-related toxicity
1,"C[C@@H](O)[C@@H]1NC(=O)[C@@H](NC(=O)CCOCCOCCNC(=O)CN2CCN(CC(=O)O)CCN(CC(N)=O)CCN(CC(=O)O)CC2)CSCc2ccccc2CSC[C@@H](C(N)=O)NC(=O)[C@H](Cc2c[nH]c3ccccc23)NC(=O)[C@H](Cc2c[nH]c3ccccc23)NC(=O)[C@H](CCC(N)=O)NC(=O)[C@H](CCC(=O)O)NC(=O)[C@H](Cc2c[nH]c3ccccc23)NC(=O)[C@@H]2CCCN2C1=O [[^212Pb]VMT-FAP-2-59, metal not drawn] ({X1-PEG2}-CTPWEQWWC-NH2; linker 1-9 via oXylylene)",No treatment-related toxicity was observed
